Source: publication PMC9742383, “From tryptamine to the discovery of efficient multi-target directed ligands against cholinesterase-associated neurodegenerative disorders” (Frontiers in Pharmacology, 2022)
Where two headings read alike, the source gives them in different places.

Key:
AChE = biological target: T1, AChE (Electrophorus electricus, UniProt O42275); experiment: Ellman colorimetric assay; assay type: biochemical
T1 construct: native enzyme, Type V-S lyophilized powder, Sigma-Aldrich

in vitro [1] = experiment: in vitro; design: MTT cytotoxicity, absorbance at 570 nm, HT-22 mouse hippocampal neuronal cells; conditions: mouse, read-out: IC50 ± SD / HT-22 ^a
Protocol: The cell lines present in this study were purchased from the China Center for Type Collection (CCTCC, China). For cytotoxicity assay, HT-22, BV2, SH-SY5Y, HepG2, and LO2 cells were incubated in 96-well plates at the density of 5 × 10³ per well. After incubation for 12 h at 37°C, the tested compounds with the required concentrations were added to the corresponding wells and continuously incubated for 24 h at 37°C. Then, the prepared MTT (3-[4,5-dimethyl-2-thiazolyl]-2,5-diphenyl-2H-tetrazolium bromide) solution was added to each well and co-incubated for another 4 h at 37°C. Then, the supernatant was removed, and 100 μl DMSO was added to each well. The OD value of each well was detected at 570 nm using a microplate reader (Bio-Rad Laboratories, CA, United States). The IC50 values were calculated using IBM SPSS Statistics 25.0 software. All experiments were performed in triplicate, and the results were shown as the mean ± SD. In order to explore the applicability of the synthesized CTDs in neurological diseases, the neuronal cytotoxicity of the synthesized compounds was evaluated on mouse hippocampal neuronal cell line HT-22. […] In view of these CTDs endowed strong inhibition efficacy on BuChE, we preliminarily evaluated their safety range by comparing their IC50 values on cytotoxicity and BuChE inhibitory activity. […] Therefore, the series of compounds with dibenzyl groups, especially compounds bearing ring carbon alkyl chains (2f-2h) and tertiary amine residues (2j-2u) with little cytotoxicity on HT-22, can be considered as potential lead building blocks for further structure optimization to develop novel effective agents against neurological diseases.

BuChE [2] = biological target: T2, BuChE (Equus caballus, UniProt P81908); experiment: time-dependent Ellman assay, kobs analysis; design: gene BCHE; conditions: read-out: kc; equilibrium constant of reversible step before carbamylation; covalent
BuChE [3] = biological target: T2, BuChE; experiment: Ellman colorimetric assay; assay type: biochemical; design: gene BCHE; native enzyme from equine serum, purchased from Sigma-Aldrich
in vitro [4] = experiment: in vitro; design: species or system LO2, HepG2; MTT cytotoxicity, absorbance at 570 nm; conditions: human, sh-sy5y; read-out: ^a IC50 ± SD (μM) / SH-SY5Y
Protocol: (§1) The cell lines present in this study were purchased from the China Center for Type Collection (CCTCC, China). For cytotoxicity assay, HT-22, BV2, SH-SY5Y, HepG2, and LO2 cells were incubated in 96-well plates at the density of 5 × 10³ per well. After incubation for 12 h at 37°C, the tested compounds with the required concentrations were added to the corresponding wells and continuously incubated for 24 h at 37°C. Then, the prepared MTT (3-[4,5-dimethyl-2-thiazolyl]-2,5-diphenyl-2H-tetrazolium bromide) solution was added to each well and co-incubated for another 4 h at 37°C. Then, the supernatant was removed, and 100 μl DMSO was added to each well. The OD value of each well was detected at 570 nm using a microplate reader (Bio-Rad Laboratories, CA, United States). The IC50 values were calculated using IBM SPSS Statistics 25.0 software. All experiments were performed in triplicate, and the results were shown as the mean ± SD. In order to further evaluate the applicability of the compounds with dibenzyl groups for neurological diseases, we also tested the cytotoxicity of the selected compounds (2f, 2h, 2j, 2m, 2o-2r, 2t, and 2u) bearing little toxicity on HT-22 cells, microglia cell line BV2, and human neuroblastoma cell line SH-SY5Y, which are widely used in the study of neurological diseases. […] In view of some carbamate-based ChE inhibitors reported to be hepatotoxic, we further performed the preliminary evaluation of the hepatotoxicity of the selected compounds on human normal liver cell line LO2 and human hepatocellular carcinoma cell line HepG2.

in vitro [5] = experiment: in vitro; design: species or system SH-SY5Y, HepG2; MTT cytotoxicity, absorbance at 570 nm; conditions: human, lo2 cells; read-out: ^a IC50 ± SD (μM) / LO2
Protocol: as §1

in vitro [6] = experiment: in vitro; design: species or system SH-SY5Y, LO2; MTT cytotoxicity, absorbance at 570 nm; conditions: human, read-out: ^a IC50 ± SD (μM) / HepG2
Protocol: as §1

[7] = read-out: IC50 ± SD ^a / AChE ^a
[8] = ht-22 hippocampal neuronal cells
[9] = read-out: IC50 ± SD ^a / BuChE ^a

T2 sequence (P81908 whole entry): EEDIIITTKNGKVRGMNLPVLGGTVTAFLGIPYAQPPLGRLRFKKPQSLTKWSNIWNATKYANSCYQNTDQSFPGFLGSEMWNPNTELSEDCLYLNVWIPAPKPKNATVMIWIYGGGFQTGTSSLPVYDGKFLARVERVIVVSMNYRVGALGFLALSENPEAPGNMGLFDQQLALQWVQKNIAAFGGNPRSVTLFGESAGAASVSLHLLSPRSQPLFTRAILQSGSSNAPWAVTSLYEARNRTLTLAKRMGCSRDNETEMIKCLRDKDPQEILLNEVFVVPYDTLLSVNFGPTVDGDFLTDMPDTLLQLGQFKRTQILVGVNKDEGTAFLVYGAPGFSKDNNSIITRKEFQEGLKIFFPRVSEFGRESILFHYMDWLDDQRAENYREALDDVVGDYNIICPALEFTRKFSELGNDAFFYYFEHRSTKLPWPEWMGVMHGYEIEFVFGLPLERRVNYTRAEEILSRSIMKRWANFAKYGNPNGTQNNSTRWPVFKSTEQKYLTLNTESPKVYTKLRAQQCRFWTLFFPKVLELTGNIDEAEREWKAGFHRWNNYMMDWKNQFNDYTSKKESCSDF
T1 sequence (O42275 24-633): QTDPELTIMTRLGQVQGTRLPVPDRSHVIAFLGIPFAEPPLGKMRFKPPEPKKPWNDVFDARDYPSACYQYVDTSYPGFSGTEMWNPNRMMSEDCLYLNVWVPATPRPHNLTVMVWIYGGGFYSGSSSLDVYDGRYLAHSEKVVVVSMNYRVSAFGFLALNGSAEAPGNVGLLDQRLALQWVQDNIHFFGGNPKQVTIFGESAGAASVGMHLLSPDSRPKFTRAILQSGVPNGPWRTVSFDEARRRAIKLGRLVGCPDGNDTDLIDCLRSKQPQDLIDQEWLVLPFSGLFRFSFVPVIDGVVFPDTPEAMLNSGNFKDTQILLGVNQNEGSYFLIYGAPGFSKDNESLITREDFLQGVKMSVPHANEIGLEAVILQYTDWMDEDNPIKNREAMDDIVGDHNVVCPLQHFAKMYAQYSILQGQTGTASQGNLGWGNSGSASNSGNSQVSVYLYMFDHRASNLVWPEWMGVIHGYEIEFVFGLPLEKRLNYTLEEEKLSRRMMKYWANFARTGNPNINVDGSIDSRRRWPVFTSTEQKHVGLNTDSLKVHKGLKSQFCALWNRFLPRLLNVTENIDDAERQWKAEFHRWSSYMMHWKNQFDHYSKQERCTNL

Structure (SMILES)	IC50 (AChE; read-out: IC50 ± SD / AChE ^a)	CC50 at 24 h (in vitro [1]; ht-22)	KI (inactivation) (BuChE [2])	IC50 (BuChE [3]; read-out: IC50 ± SD / BuChE ^a)	CC50 at 24 h (in vitro [4])	CC50 at 24 h (in vitro [5])	CC50 at 24 h (in vitro [6]; hepg2)	CC50 at 24 h (in vitro [6]; hepg2 cells)	IC50 (AChE; [7])	CC50 at 24 h (in vitro [1]; [8])	IC50 (BuChE [3]; [9])	IC50 (AChE; ATCI substrate, […] min preincubation […] °C, pH […], read-out: IC50 ± SD ^a / AChE ^a)	IC50 (BuChE [3]; BTCI substrate, […] min preincubation […] °C, pH […], pseudo-irreversible carbamate, covalent, read-out: IC50 ± SD ^a / BuChE ^a)
CCCCCNC(=O)Oc1ccc2[nH]cc(CCN(Cc3ccccc3)Cc3ccccc3)c2c1 [2c, 3-(2-(dibenzylamino)ethyl)-1H-indol-5-yl pentylcarbamate]	> 100 µM	37.47 ± 0.23 µM	0.00705 µM	0.0021 ± 0.00014 µM									
CCCCCCCNC(=O)Oc1ccc2[nH]cc(CCN(Cc3ccccc3)Cc3ccccc3)c2c1 [2e, 3-(2-(dibenzylamino)ethyl)-1H-indol-5-yl heptylcarbamate]	> 100 µM	35.6 ± 2.45 µM	0.00255 µM	0.00142 ± 4e-06 µM									
O=C(NC1CC1)Oc1ccc2[nH]cc(CCN(Cc3ccccc3)Cc3ccccc3)c2c1 [2f, 3-(2-(dibenzylamino)ethyl)-1H-indol-5-yl cyclopropylcarbamate]	> 100 µM	60.2 ± 3.85 µM	0.00159 µM	0.00875 ± 0.00023 µM									
O=C(NC1CCCCC1)Oc1ccc2[nH]cc(CCN(Cc3ccccc3)Cc3ccccc3)c2c1 [2h, 3-(2-(dibenzylamino)ethyl)-1H-indol-5-yl cyclohexylcarbamate]	> 100 µM	74.2 ± 1.5 µM		0.016 ± 0.00032 µM	> 100 µM	> 100 µM							
CN(C)C(=O)Oc1ccc2[nH]cc(CCN(Cc3ccccc3)Cc3ccccc3)c2c1 [2j, 3-(2-(dibenzylamino)ethyl)-1H-indol-5-yl dimethylcarbamate]	> 100 µM	> 100 µM		0.00677 ± 0.00027 µM	> 100 µM	> 100 µM	> 100 µM						
CCCCN(CCCC)C(=O)Oc1ccc2[nH]cc(CCN(Cc3ccccc3)Cc3ccccc3)c2c1 [2m, 3-(2-(dibenzylamino)ethyl)-1H-indol-5-yl dibutylcarbamate]	> 100 µM	65.28 ± 0.09 µM		0.0138 ± 0.00067 µM	> 100 µM	> 100 µM	> 100 µM						
CON(C)C(=O)Oc1ccc2[nH]cc(CCN(Cc3ccccc3)Cc3ccccc3)c2c1 [2o, 3-(2-(dibenzylamino)ethyl)-1H-indol-5-yl methoxy(methyl)carbamate]	2.93 µM	72.1 ± 2.23 µM		0.00865 ± 0.00034 µM	> 100 µM								
CN(C(=O)Oc1ccc2[nH]cc(CCN(Cc3ccccc3)Cc3ccccc3)c2c1)c1ccccc1 [2p, 3-(2-(dibenzylamino)ethyl)-1H-indol-5-yl methyl(phenyl)carbamate]	> 100 µM	> 100 µM		0.0189 ± 0.00134 µM	> 100 µM	> 100 µM		> 100 µM					
O=C(Oc1ccc2[nH]cc(CCN(Cc3ccccc3)Cc3ccccc3)c2c1)N1CCC1 [2q, 3-(2-(dibenzylamino)ethyl)-1H-indol-5-yl azetidine-1-carboxylate]	0.742 ± 0.00987 µM	86.5 ± 1.82 µM		0.00165 ± 3e-05 µM				> 100 µM					
O=C(Oc1ccc2[nH]cc(CCN(Cc3ccccc3)Cc3ccccc3)c2c1)N1CCCC1 [2r, 3-(2-(dibenzylamino)ethyl)-1H-indol-5-yl pyrrolidine-1-carboxylate]	> 100 µM	79.8 ± 5.36 µM		0.0205 ± 0.0017 µM	> 100 µM	> 100 µM	> 100 µM						
O=C(Oc1ccc2[nH]cc(CCN(Cc3ccccc3)Cc3ccccc3)c2c1)N1CCCCCC1 [2t, 3-(2-(dibenzylamino)ethyl)-1H-indol-5-yl azepane-1-carboxylate]	> 100 µM	> 100 µM		0.068 ± 0.00842 µM		> 100 µM	> 100 µM						
O=C(Oc1ccc2[nH]cc(CCN(Cc3ccccc3)Cc3ccccc3)c2c1)N1CCOCC1 [2u, 3-(2-(dibenzylamino)ethyl)-1H-indol-5-yl morpholine-4-carboxylate]	> 100 µM	78.7 ± 3.79 µM		0.114 ± 0.00145 µM	> 100 µM	> 100 µM	> 100 µM						
CCCCCNC(=O)Oc1ccc2[nH]cc(CCNCc3ccccc3)c2c1 [3c, 3-(2-(benzylamino)ethyl)-1H-indol-5-yl pentylcarbamate]			0.0737 µM						1.13 µM	10.6 ± 0.24 µM	0.0239 ± 0.0029 µM		
O=C(NC1CC1)Oc1ccc2[nH]cc(CCNCc3ccccc3)c2c1 [3f, 3-(2-(benzylamino)ethyl)-1H-indol-5-yl cyclopropylcarbamate]			0.00576 µM						3.17 µM	15 ± 1.17 µM	0.0157 ± 0.0013 µM		
O=C(Oc1ccc2[nH]cc(CCNCc3ccccc3)c2c1)N1CCCCC1 [3s, 3-(2-(benzylamino)ethyl)-1H-indol-5-yl piperidine-1-carboxylate]			0.00508 µM						9.08 µM	13.8 ± 0.91 µM	0.0339 ± 0.00214 µM		
CCCCCCCNC(=O)Oc1ccc2[nH]cc(CCN)c2c1 [4e, 3-(2-aminoethyl)-1H-indol-5-yl heptylcarbamate]			0.00302 µM							26.1 ± 2.29 µM		> 100 µM	0.0101 ± 0.00083 µM
CCN(C)C(=O)Oc1cccc([C@H](C)N(C)C)c1 [rivastigmine]			0.0559 µM		> 100 µM	> 100 µM	> 100 µM						
